Reference: publication PMC9283466, “In silico identification of two peptides with antibacterial activity against multidrug-resistant Staphylococcus aureus” (NPJ Biofilms and Microbiomes, 2022)
In brackets after ≈: the same amount, converted by molar mass. Read-outs that look alike come from different tables or passages of the source.

How the values were obtained:
Ent. faecalis = assay: microbe, parasite or virus in culture; format: cell-based, Enterococcus faecalis; details: Ent. faecalis, Supplementary Table 5
Method: (§1) To determine the antimicrobial activity of the new antimicrobial peptides, HG2 and HG4, their minimum inhibitory concentrations (MICs) were determined by broth microdilution method[51] in cation adjusted Mueller Hinton broth (MHB) following the International Organisation for Standardisation (ISO) 20776-1 standard for MIC testing using a final bacterial inoculum of 5 × 10^5 CFU/ml[52]. […] The peptides dissolved in sterile distilled water were added to bacteria culture and incubated overnight at appropriate conditions. The MICs of the peptides and comparator antibiotics were recorded after 18–24 h. The minimum bactericidal concentrations (MBCs) were also determined and were taken as the lowest concentration of the antimicrobial that prevented the growth of bacterial cells after the subculture of cells (from MIC treatment) onto antibiotic-free media.

Ent. faecalis JH2-2 = assay: microbe, parasite or virus in culture; format: cell-based, Enterococcus faecalis; details: Ent. faecalis JH2-2
Method: as §1

S. aureus EMRSA-15 = assay: microbe, parasite or virus in culture; format: cell-based, Staphylococcus aureus; details: S. aureus EMRSA-15, resistances MRSA, Cip
Method: as §1

S. aureus = assay: microbe, parasite or virus in culture; format: cell-based, Staphylococcus aureus
Method: as §1

EMRA-15 = assay: microbe, parasite or virus in culture; format: cell-based, Staphylococcus aureus; details: EMRA-15, Supplementary Table 5
Method: as §1

List. monocytogenes = assay: microbe, parasite or virus in culture; format: cell-based, Listeria monocytogenes; details: List. monocytogenes, Supplementary Table 5
Method: as §1

[1] = tested on: L. monocytogenes NCTC 11994; assay: microbe, parasite or virus in culture; format: cell-based, Listeria monocytogenes; details: L. monocytogenes NCTC 11994
Method: as §1

E. coli = assay: microbe, parasite or virus in culture; format: cell-based, Escherichia coli
Method: as §1

E. coli K12 = assay: microbe, parasite or virus in culture; format: cell-based, Escherichia coli; details: E. coli K12
Method: as §1

[2] = tested on: K. pneumoniae ATCC 700603; assay: microbe, parasite or virus in culture; format: cell-based, Klebsiella pneumoniae; details: K. pneumoniae ATCC 700603, SHV-18
Method: as §1

K. pneumoniae 518842 = assay: microbe, parasite or virus in culture; format: cell-based, Klebsiella pneumoniae
Method: as §1

K. pneumoniae 526903 = assay: microbe, parasite or virus in culture; format: cell-based, Klebsiella pneumoniae; details: K. pneumoniae 526903, sensitive
Method: as §1

K. pneumoniae NCTC 13442 = assay: microbe, parasite or virus in culture; format: cell-based, Klebsiella pneumoniae; details: K. pneumoniae NCTC 13442, OXA-48
Method: as §1

S. aureus RN4220 = assay: MIC, broth microdilution; format: cell-based, Staphylococcus aureus; details: sensitive
Method: as §1

A. baumannii 515722 = assay: microbe, parasite or virus in culture; format: cell-based, Acinetobacter baumannii; details: A. baumannii 515722, sensitive
Method: as §1

[3] = tested on: A. baumannii (IMI, MER resistant; strain ID not given); assay: microbe, parasite or virus in culture; format: cell-based, Acinetobacter baumannii; details: A. baumannii, no strain ID, MER
Method: as §1

A. baumannii 515785 = assay: microbe, parasite or virus in culture; format: cell-based, Acinetobacter baumannii
Method: as §1

A. baumannii 515908 = assay: microbe, parasite or virus in culture; format: cell-based, Acinetobacter baumannii; details: A. baumannii 515908, sensitive
Method: as §1

Sal. typhimurium SL1344 = assay: microbe, parasite or virus in culture; format: cell-based, Salmonella enterica serovar Typhimurium; details: Sal. typhimurium SL1344
Method: as §1

Sal. typhimurium = assay: microbe, parasite or virus in culture; format: cell-based, Salmonella enterica serovar Typhimurium; details: Sal. typhimurium, Supplementary Table 5
Method: as §1

B. cereus = assay: microbe, parasite or virus in culture; format: cell-based, Bacillus cereus; details: Bacillus cereus; B. cereus; read-out: MIC
Method: as §1

[4] = tested on: P. aeruginosa (CF) AMT0060; assay: microbe, parasite or virus in culture; format: cell-based, Pseudomonas aeruginosa; details: P. aeruginosa (CF) AMT0060
Method: as §1

[5] = tested on: P. aeruginosa (CF) LES400; assay: microbe, parasite or virus in culture; format: cell-based, Pseudomonas aeruginosa; details: P. aeruginosa (CF) LES400
Method: as §1

P. aeruginosa PA01 = assay: microbe, parasite or virus in culture; format: cell-based, Pseudomonas aeruginosa; details: P. aeruginosa PA01
Method: as §1

P. aeruginosa (CF) C3719 = assay: microbe, parasite or virus in culture; format: cell-based, Pseudomonas aeruginosa; details: P. aeruginosa (CF) C3719
Method: as §1

P. aeruginosa = assay: microbe, parasite or virus in culture; format: cell-based, Pseudomonas aeruginosa; details: P. aeruginosa, Supplementary Table 5
Method: as §1

[6] = tested on: LPS-driven NF-kB activation, eLUCidate Raw 264.7 NF-kB reporter cell line; assay: Anti-inflammatory activity, NF-kB luciferase reporter; format: cell-based, murine; details: 10 ng/ml LPS from E. coli, 6 h
Method: (§2) The inhibitory activity of HG2, HG4 and comparator compounds against LPS and LTA was assessed using eLUCidate™ Raw 264.7 NF-kB reporter cell line (AMSBIO) as previously described. The eLUCidate NF-kB reporter cell line is a stably transfected Raw 264.7 cell line which expresses the Renilla luciferase reporter gene under the transcriptional control of the NF-kB response element, a key transcription factor involved in immune and inflammatory responses. This reporter cell line has been used to measure the induction of various toll-like receptors (TLR) by ligands, including LPS and LTA, therefore providing an effective way to evaluate inhibitors of their activations. Briefly, cells were grown and maintained following the manufacturer’s instructions in Dulbecco’s modified essential medium (DMEM) supplemented with 10% fetal calf serum (FCS), 1% L-glutamine, 1% antibiotics (Invitrogen) and containing 3 µg/ml of puromycin (Sigma-Aldrich, UK). To test the inhibitory activity of HG2 and HG4 on LPS or LTA-driven NF-kB activation, eLUCidate™ Raw 264.7 cells grown on 75 cm^2 flasks were detached using trypsin-EDTA solution (Thermofisher, UK) and seeded into 96-well cell culture plates (Greiner Bio-one, UK) at ~25,000 cells per well (counted using Mallasez’s chamber). The next day, wells were emptied, and cells were exposed to optimal concentrations of LPS or LTA determined from preliminary experiments, (i.e. 10 ng/ml of LPS from E. coli or 10 µg/ml of LTA from S. aureus (Invivogen, UK)) in the presence of increasing concentrations of HG2 or HG4 (from 0 to 500 µg/ml, serial 1:2 dilutions). Pyrrolidine dithiocarbamate (PDTC, 100 µM) and polymyxin B (PMB, 100 µM) (Sigma-Aldrich, UK) were used as positive controls based on their well-known activity as anti-inflammatory molecules and blockers/neutralisers of LPS and LTA, respectively. Importantly, all steps were performed using non-pyrogenic plastics and RNase/DNase molecular biology tips to limit the risk of the presence of a trace of LPS/LTA. After 6 h incubation at 37 °C and 5% CO2, wells were emptied, and the cells were treated with 70 µl of ice-cold PBS containing 1% Triton X-100. After 10 min incubation on ice under orbital shaking at 200 rpm, 50 µL of cell lysates were collected and transferred into white 96-well luminescence plates (Dominique Dutscher) already containing 100 µL of Renilla luciferase substrate (Yelen, France). Luminescence signals of the wells were immediately measured using a microplate reader (Biotek Synergy Mx, UK). The luminescence values were expressed as a percentage of control inflammation corresponding to values obtained after treatment with LPS or LTA in the absence of an inhibitor. The IC50 values of PDTC, PMB, HG2 or HG4 on LPS or LTA-mediated inflammation (i.e. the concentration of molecule causing a reduction of 50% of the luciferase’s induction caused by LPS or LTA) were calculated using GraphPad® Prism 7 software.

[7] = tested on: LTA-driven NF-kB activation, eLUCidate Raw 264.7 NF-kB reporter cell line; assay: as above; format: cell-based, murine; details: 10 µg/ml LTA from S. aureus, 6 h
Method: as §2

[8] = Staphylococcus aureus, read-out: MIC
[9] = Staphylococcus aureus, read-out: Minimum inhibitory Concentrations MICs
[10] = Acinetobacter baumannii, read-out: MIC
[11] = Pseudomonas aeruginosa, read-out: MIC

Compound: O=C(O)c1cn(C2CC2)c2cc(N3CCNCC3)c(F)cc2c1=O [Cip, ciprofloxacin, reference compound]
- MIC (Ent. faecalis; Enterococcus faecalis, read-out: Minimum inhibitory Concentrations MICs): 62.5 µg/mL (≈ 189 µM)
- MIC (Ent. faecalis JH2-2; Enterococcus faecalis, JH22, read-out: MIC): 64 µg/mL (≈ 193 µM)
- MIC (S. aureus EMRSA-15; [8]): > 256 µg/mL
- MIC (S. aureus; [9]): > 250 µg/mL
- MIC (EMRA-15; [9]): > 250 µg/mL
- MIC (List. monocytogenes; Listeria monocytogenes, read-out: Minimum inhibitory Concentrations MICs): 62.5 µg/mL (≈ 189 µM)
- MIC ([1]; Listeria monocytogenes, NCTC11994, read-out: MIC): 64 µg/mL (≈ 193 µM)
- MIC (E. coli; Escherichia coli, read-out: Minimum inhibitory Concentrations MICs): 0.06 µg/mL (≈ 0.181 µM)
- MIC (E. coli K12; Escherichia coli, read-out: MIC): 0.06 µg/mL (≈ 0.181 µM)
- MIC ([2]; Klebsiella pneumoniae, ATCC700603, read-out: MIC): 0.25 µg/mL (≈ 0.754 µM)
- MIC (K. pneumoniae 518842; Klebsiella pneumoniae, 518842): > 128 µg/mL
- MIC (K. pneumoniae 526903; Klebsiella pneumoniae, read-out: MIC): 0.03 µg/mL (≈ 0.0905 µM)
- MIC (K. pneumoniae NCTC 13442; Klebsiella pneumoniae, NCTC13442, read-out: MIC): 64 µg/mL (≈ 193 µM)
- MIC (S. aureus RN4220; [8]): > 256 µg/mL
- MIC (A. baumannii 515722; [10]): 16 µg/mL (≈ 48.3 µM)
- MIC [3, 10]: 16 µg/mL (≈ 48.3 µM)
- MIC (A. baumannii 515785; Acinetobacter baumannii, 515785): > 128 µg/mL
- MIC (A. baumannii 515908; [10]): 16 µg/mL (≈ 48.3 µM)
- MIC (Sal. typhimurium SL1344; Salmonella enterica, read-out: MIC): 0.12 µg/mL (≈ 0.362 µM)
- MIC (Sal. typhimurium; Salmonella enterica, read-out: Minimum inhibitory Concentrations MICs): 0.12 µg/mL (≈ 0.362 µM)
- MIC (B. cereus): 0.015 µg/mL (≈ 0.0453 µM)
- MIC [4, 11]: 0.12 µg/mL (≈ 0.362 µM)
- MIC [5, 11]: 4 µg/mL (≈ 12.1 µM)
- MIC (P. aeruginosa PA01; [11]): 0.5 µg/mL (≈ 1.51 µM)
- MIC (P. aeruginosa (CF) C3719; [11]): 4 µg/mL (≈ 12.1 µM)
- MIC (P. aeruginosa; Pseudomonas aeruginosa, read-out: Minimum inhibitory Concentrations MICs): 0.49 µg/mL (≈ 1.48 µM)

Compound: polymyxin B [reference compound]
- Minimum inhibitory Concentrations MICs (Ent. faecalis): 31.25 µg/mL
- MIC (Ent. faecalis JH2-2): 32 µg/mL
- MIC (S. aureus EMRSA-15): 256 µg/mL
- Minimum inhibitory Concentrations MICs (S. aureus; S. aureus, Supplementary Table 5): 250 µg/mL
- Minimum inhibitory Concentrations MICs (EMRA-15): 250 µg/mL
- Minimum inhibitory Concentrations MICs (List. monocytogenes): 62.5 µg/mL
- MIC [1]: 64 µg/mL
- Minimum inhibitory Concentrations MICs (E. coli; E. coli, Supplementary Table 5): 1.95 µg/mL
- MIC (E. coli K12): 2 µg/mL
- MIC [2]: 2 µg/mL
- MIC (K. pneumoniae 518842; K. pneumoniae 518842, CTX-M): 2 µg/mL
- MIC (K. pneumoniae 526903): 4 µg/mL
- MIC (K. pneumoniae NCTC 13442): 8 µg/mL
- MIC (S. aureus RN4220): 256 µg/mL
- MIC (A. baumannii 515722): 0.25 µg/mL
- MIC [3]: 0.25 µg/mL
- MIC (A. baumannii 515785; A. baumannii 515785, OXA-23, OXA-50): 0.5 µg/mL
- MIC (A. baumannii 515908): 0.5 µg/mL
- MIC (Sal. typhimurium SL1344): 2 µg/mL
- Minimum inhibitory Concentrations MICs (Sal. typhimurium): 1.95 µg/mL
- MIC [4]: 0.5 µg/mL
- MIC [5]: 1 µg/mL
- MIC (P. aeruginosa PA01): 2 µg/mL
- MIC (P. aeruginosa (CF) C3719): 1 µg/mL
- Minimum inhibitory Concentrations MICs (P. aeruginosa): 1.95 µg/mL
- IC50, LPS-mediated inflammation [6]: 62.26 ± 4.01 µg/mL
- IC50, LTA-mediated inflammation [7]: 61.34 ± 3.47 µg/mL
